Laboratory results as given in US20260199223A1, “USE OF AN AUREOBASIDIUM PULLULANS EXTRACT ALONE OR IN COMBINATION WITH A C-GLYCOSIDE AS A COSMETIC ACTIVE PRINCIPLE” (L'OREAL, priority 2022, published 2026).
Values belong to the compound of their own block, whether it stands above or below them.

Columns and labels:
Format in all cases: cell-based, human
occludin = test: Expression of occludin in NHEK, in situ immunofluorescence; details: 144 hours
Method: (§1) The effects of the Aureobasidium pullulans extract and C-β-D-xylopyranoside-2-hydroxypropane (C-Xyloside, Pro-Xylane™) and a combination thereof were evaluated on normal human epidermal keratinocytes (NHEK) by analysing the expression of markers by in situ immunofluorescence labelling and image analysis: • expression of the differentiation markers: Transglutaminase K (TGK), filaggrin and involucrin, • expression of the tight junction proteins: claudin-1, zonula occludens-1 (ZO-1) and occludin,
(§2) The compounds were tested at a non-cytotoxic concentration. • Normal human keratinocytes: NHEK, Bioalternatives reference K341 used at third passage. • Culture conditions: 37° C., 5% CO2 • Culture medium: Keratinocyte SFM (serum free medium) supplemented with Epidermal Growth Factor Pituitary extract • Test medium: Keratinocyte SFM (serum free medium)
The keratinocytes were seeded in 96-well plates and cultured in culture medium for 24 hours. […]
(§3) The labelling was quantified by measuring the fluorescence intensity and normalizing the fluorescence intensity relative to the total number of cells (Digital data integration with Developer Toolbox 1.5 software, GE Healthcare).

[1] = test system: zonula occludens-1 (ZO-1); test: Expression of ZO-1 in NHEK, in situ immunofluorescence; details: 72 hours
Method: as §1, §2
(§4) The keratinocytes were seeded in 96-well plates and cultured in culture medium for 24 hours. The medium was then replaced with a test medium containing or not containing (control) the test compounds, the combination or the reference compound and the cells were incubated for 72 hours.
(§5) The cells were rinsed with PBS solution, fixed and permeabilized. The cells were then labelled using a specific primary antibody (Table 13).
(§6) Image acquisition (five photos/well) was performed using an INCell Analyzer™ 2200 (GE Healthcare, x20 objective).
as §3

claudin-1 [2] = test: Expression of claudin-1 in NHEK, in situ immunofluorescence; details: 72 hours
Method: as §1, §2, §4, §5, §6, §3

involucrin [3] = test: Expression of involucrin in NHEK, in situ immunofluorescence; details: 144 hours
Method: as §1, §2
as §4, with “incubated for 144 hours with a repeat treatment after 72 hours.” for “incubated for 72 hours.”
as §5, §6, §3

filaggrin [4] = test: Expression of filaggrin in NHEK, in situ immunofluorescence; details: 72 hours
Method: as §1, §2
The keratinocytes were seeded in a 96-well plate and grown in culture medium for 192 hours with renewal of the culture medium after 24 and 96 hours. The medium was then replaced with a test medium containing or not containing (control) the test compounds, the combination or the reference compound and the cells were incubated for 72 hours.
as §5, §6, §3

Transglutaminase K (TGK) = test: Expression of TGK in NHEK, in situ immunofluorescence; details: 72 hours
Method: as §1, §2, §4, §5, §6, §3

Collagen IV = test: Expression of collagen IV in NHEK, in situ immunofluorescence; details: 72 hours
Method: as §1
The compounds were tested at a non-cytotoxic concentration. • Normal human keratinocytes: NHEK, Bioalternatives reference K341 used at third passage. • Culture conditions: 37° C., 5% CO2 • Culture medium: Keratinocyte SFM (serum free medium) supplemented with Epidermal Growth Factor Pituitary extract • Test medium: Keratinocyte SFM (serum free medium) […]
as §3

filaggrin [5] = test: Filaggrin synthesis by immunohistofluorescence in reconstructed epidermis
Method: (§7) Human keratinocytes were seeded onto inserts and then incubated at 37° C. in an atmosphere containing 5% CO2. Between the second and ninth day of incubation, the culture medium was changed every two days. […] On day 17, the reconstructed skins were then recovered and processed in different ways depending on the analysis test performed, namely: • for immunohistofluorescence analysis, the reconstructed skins were recovered, fixed, dehydrated and embedded in paraffin. 4 μm sections were then produced using a microtome (Leica). • for a QPCR test, the reconstructed skins were recovered and the RNAs were extracted in their entirety. The following primary antibodies were used for this test: • Mouse anti-filaggrin monoclonal antibody • Rabbit anti-loricrin polyclonal antibody • Mouse anti-claudin-1 monoclonal antibody The secondary antibodies used were as follows: • Alexa Fluor® 488-coupled rabbit anti-IgG antibody • Alexa Fluor® 488-coupled mouse anti-IgG antibody Visualization was performed using an IX 70 microscope (Olympus) coupled to an image analysis system (NIS-Elements software, Nikon). The content of the various markers synthesized was proportional to the intensity of the green fluorescence present on the reconstructed epidermis samples. Quantification was performed by means of an image analysis script in Python language. The results are expressed in arbitrary units (AU).

loricrin = test: Loricrin synthesis by immunohistofluorescence in reconstructed epidermis; details: day 9 to day 17, 250 μm
Method: as §7

claudin-1 [6] = test: Claudin-1 synthesis by immunohistofluorescence in reconstructed epidermis
Method: as §7

ZO-1 = test: Quantitative PCR analysis of ZO-1 expression in reconstructed epidermis; details: QPCR, 250 μm, control = 100
Method: (§8) Human keratinocytes were seeded onto inserts and then incubated at 37° C. in an atmosphere containing 5% CO2. Between the second and ninth day of incubation, the culture medium was changed every two days. […] On day 17, the reconstructed skins were then recovered and processed in different ways depending on the analysis test performed, namely: • for immunohistofluorescence analysis, the reconstructed skins were recovered, fixed, dehydrated and embedded in paraffin. 4 μm sections were then produced using a microtome (Leica). • for a QPCR test, the reconstructed skins were recovered and the RNAs were extracted in their entirety. For this analysis, the RNAs were reverse-transcribed and the complementary DNAs obtained were analysed via a quantitative PCR technique. The mRNAs of the RPS18, GAPDH and GUSB proteins, the reference internal controls, were analysed in parallel with the mRNAs of ZO-1, CK10, involucrin and TGM1. Quantification of fluorescence incorporation (SYBR Green) was measured continuously using a LightCycler LC480 thermal cycler (Roche) and Ct analysis (relative quantification) was performed using the LC480 software (Roche).

CK10 = test: Quantitative PCR analysis of CK10 expression in reconstructed epidermis; details: QPCR, 250 μm, control = 100
Method: as §8

TGM1 = test: Quantitative PCR analysis of TGM1 expression in reconstructed epidermis; details: QPCR, 250 μm, control = 100
Method: as §8

involucrin [7] = test: Quantitative PCR analysis of involucrin expression in reconstructed epidermis; details: QPCR, 250 μm, control = 100
Method: as §8

Expression of TGK, Integration fluo (Transglutaminase K (TGK); 0.03%): 124 % of control
Expression of TGK, Integration fluo (Transglutaminase K (TGK); 0.1%): 158 % of control
Expression of TGK, Integration fluo (Transglutaminase K (TGK); 0.3%): 235 % of control
Compound: CC(O)C[C@@H]1OC[C@@H](O)[C@H](O)[C@H]1O (stereo partly drawn) [C-β-D-xylopyranoside-2-hydroxypropane]
Expression of occludin, Integration fluo (occludin; 0.3%): 78 % of control
Expression of ZO-1, Integration fluo ([1]; 0.03%): 111 % of control
Expression of ZO-1, Integration fluo ([1]; 0.1%): 124 % of control
Expression of ZO-1, Integration fluo ([1]; 0.3%): 127 % of control
Expression of Claudin-1, Integration fluo (claudin-1 [2]; 0.03%): 184 % of control
Expression of Claudin-1, Integration fluo (claudin-1 [2]; 0.1%): 204 % of control
Expression of Involucrin, Integration fluo (involucrin [3]; 0.1%): 109 % of control
Expression of Involucrin, Integration fluo (involucrin [3]; 0.3%): 110 % of control
Expression of Filaggrin, Integration fluo (filaggrin [4]; 0.1%): 114 % of control
Expression of Filaggrin, Integration fluo (filaggrin [4]; 0.3%): 127 % of control
Expression of Collagen IV, Integration fluo (Collagen IV; 0.3%): 120 % of control

Compound: NC(=O)c1cccnc1 [Niacinamide]
Efficacy/control (%), filaggrin (filaggrin [5]; 250 μm): +42%
Synthesis of filaggrin (filaggrin [5]; day 9 to day 17, 250 μm): 941 × 10^3 AU
Synthesis of loricin (loricrin): 214 × 10^3 AU
Efficacy/control (%), claudin-1 (claudin-1 [6]; 250 μm): +10%
Synthesis of claudin-1 (claudin-1 [6]; day 9 to day 17, 250 μm): 266 × 10^3 AU
Expression of ZO-1 (%) (ZO-1): 91%
Expression of CK10 (%) (CK10): 100%
Expression of TGMI (%) (TGM1): 86%
Expression of involucrin (%) (involucrin [7]): 78%

Compound: TGF-β: positive control for expression of the marker Collagen IV, R&D Systems ref. 240-B
Expression of Collagen IV, Integration fluo (Collagen IV; 10 ng/ml): 176 % of control

Expression of TGK, Integration fluo (Transglutaminase K (TGK); 1.5 mM): 903 % of control
Compound: [Ca+2].[Cl-].[Cl-] [CaCl2]
Expression of occludin, Integration fluo (occludin; 1.5 mM): 296 % of control
Expression of ZO-1, Integration fluo ([1]; 1.5 mM): 119 % of control
Expression of Claudin-1, Integration fluo (claudin-1 [2]; 1.5 mM): 200 % of control
Expression of Involucrin, Integration fluo (involucrin [3]; 1.5 mM): 126 % of control
Expression of Filaggrin, Integration fluo (filaggrin [4]; 1.5 mM): 159 % of control
